The subject of one assay is Escherichia coli. In words: Inhibitory activity tested against procaryotic translation in Escherichia coli S30 Extract System. It is filed as functional, organism-based.
Assay [1] deals with Staphylococcus aureus. As to the kind of experiment: In vitro minimum inhibitory concentration against Staphylococcus aureus 133. It is filed as functional.
The species named for a further assay is Oryctolagus cuniculus. As to the kind of experiment: Inhibitory activity tested against eucaryotic translation in Rabbit Reticulocyte Lysate System L 4540. The format is functional.
Assay [2] is described as follows: In vitro selectivity index was measured as IC50 eucaryotic translation/procaryotic translation. The format is functional.
In assay [3] the test system is Enterococcus faecium. As to the kind of experiment: Antibacterial activity against Enterococcus faecium L 4001 was determined. It is filed as functional.
Assay [4] has as its system Staphylococcus aureus. In words: Antibacterial activity against Staphylococcus aureus 133 was determined. The format is functional.
Assay [5] deals with Staphylococcus epidermidis. In words: Antibacterial activity against Staphylococcus epidermidis 18570 was determined. It is filed as functional.
Assay [6] can be described thus: Antibacterial activity against […] pneumoniae 1707/4 was determined. The format is functional.
Assay [7] in a line: Antibacterial activity against […] pneumoniae G9a was determined. It is filed as functional.
Assay [8] deals with Enterococcus faecium. As to the kind of experiment: Antibacterial activity against Enterococcus faecium 18531 was determined. It is filed as functional.

pIC50: −log10 of the molar value.

Take `Br.Cc1csc(NC2=NCC(N(C)C(=O)C[C@@H](N)CCCCN)C(=O)N2)n1` (stereo partly drawn): in the assay with Escherichia coli, the negative-log IC50 (pIC50) is 6.00. The same molecule yielded a minimum inhibitory concentration (MIC) in the assay with Staphylococcus aureus [1] of 50 µg/mL.
On to `CC(=O)O.CN(C(=O)C[C@@H](N)CCCCN)C1CN=C(Nc2nc3ccccc3[nH]2)NC1=O` (stereo partly drawn), for which the pIC50 with Escherichia coli was 6.00. Moreover, inhibition of growth against Staphylococcus aureus [1] (MIC) required 50 µg/mL.
In the assay on Staphylococcus aureus [1], `CC(=O)O.CN(C(=O)C[C@@H](N)CCCCN)C1CN=C(Nc2ccccn2)NC1=O` (stereo partly drawn) returned an MIC of 0.2 µg/mL.
As to `Br.CN(C(=O)C[C@@H](N)CCCCN)C1CN=C(Nc2cnccn2)NC1=O` (stereo partly drawn), the pIC50 with Escherichia coli and in the assay filed under Oryctolagus cuniculus was over 7.00 throughout. This molecule also gave a minimal inhibitory concentration (MIC) against Staphylococcus aureus [1] of under 0.1 µg/mL.
With `CC(=O)O.CN(C(=O)C[C@@H](N)CCCCN)C1CN=C(Nc2cccnc2)NC1=O` (stereo partly drawn), the pIC50 with Escherichia coli was under 4.19. Further, the MIC against Staphylococcus aureus [1] was 50 µg/mL.
Regarding `Br.CN(C(=O)C[C@@H](N)CCCN=C(N)N)C1CN=C(Nc2ncccn2)NC1=O` (stereo partly drawn), the negative logarithm of the IC50 (pIC50) was over 7.30 in the assay with Escherichia coli and 7.00 in the assay filed under Oryctolagus cuniculus. In the assay with Staphylococcus aureus [1], this molecule came in with a minimal inhibitory concentration (MIC) of 0.4 µg/mL. Also, the Selectivity in assay [2] was over 2.
Take `CN(C(=O)C[C@@H](N)CSCCN)C1CN=C(NC(N)=O)NC1=O.Cl.Cl` (stereo partly drawn): the minimal inhibitory concentration (MIC) in the assay with Staphylococcus aureus [1] is 100 µg/mL.
Molecule `CC(=O)O.CN(C1=NCC(N(C)C(=O)C[C@@H](N)CCCCN)C(=O)N1)c1ccccn1` (stereo partly drawn) showed an MIC in the assay on Staphylococcus aureus [1] of over 100 µg/mL.
As for `CC(=O)O.CN(C(=O)C[C@@H](N)CCCCN)C1CN=C(Nc2ccccc2)NC1=O` (stereo partly drawn), the MIC with Staphylococcus aureus [1] amounted to 100 µg/mL.
In the assay on Staphylococcus aureus [1], `CN(C(=O)C[C@@H](N)CCCCN)C1CN=C(NC2=NCCCN2)NC1=O.Cl.Cl` (stereo partly drawn) came in with a minimum inhibitory concentration (MIC) of over 100 µg/mL.
With `CN(C(=O)C[C@@H](N)c1csc(CCN)n1)C1CN=C(NC(N)=O)NC1=O.O=S(=O)(O)C(F)(F)F` (stereo partly drawn), the pIC50 in the assay with Escherichia coli was 4.80. The MIC in the assay with Staphylococcus aureus [1] came out at 100 µg/mL.
With `CN(C(=O)C[C@@H](N)CCCCN)C1CN=C(Nc2ncccn2)NC1=O.Cl.Cl` (stereo partly drawn), the pIC50 in the assay with Escherichia coli is 6.00; in the assay listed under Oryctolagus cuniculus, 6.42. In addition, the MIC with Staphylococcus aureus [1] is 1.6 µg/mL. The molecule further gave a Selectivity in assay [2] of 0.38.
As for `CN(C(=O)C[C@@H](N)c1cc(CN)on1)C1CN=C(NC(N)=O)NC1=O.Cl.Cl` (stereo partly drawn), the pIC50 in the assay on Escherichia coli was under 4.19. For the same molecule, in the assay with Staphylococcus aureus [1], the MIC is over 100 µg/mL.
In the case of `CC(=O)O.CN(C(=O)C[C@@H](N)CCCN=C(N)N)C1CN=C(Nc2ccccn2)NC1=O` (stereo partly drawn), the pIC50 in the assay listed under Oryctolagus cuniculus was 7.15. The MIC in the assay on Enterococcus faecium [3] is 2 µg/mL; with Staphylococcus aureus [1], under 0.05 µg/mL; against Staphylococcus aureus [4] it was 0.5 µg/mL; in assay [5] it was 0.25 µg/mL; in assay [6], 2 µg/mL; in assay [7] it was 2 µg/mL. In the assay on Enterococcus faecium [8], this molecule yielded an MIC of over 64 µg/mL. Also, the ED100 in the assay on Staphylococcus aureus [4] came to 1 mg/kg.
Regarding `CN(C(=O)C[C@@H](N)CCCN=C(N)N)C1CN=C(NC(N)=O)NC1=O.Cl.Cl` (stereo partly drawn), the negative-log IC50 (pIC50) in the assay on Escherichia coli was 6.52; in the assay listed under Oryctolagus cuniculus it was 6.77. The minimal inhibitory concentration (MIC) amounted to 2 µg/mL with Enterococcus faecium [3]; 0.1 µg/mL in the assay on Staphylococcus aureus [1]; 0.25 µg/mL against Staphylococcus aureus [4]; 0.25 µg/mL in assay [5]; 32 µg/mL in assay [6]; 16 µg/mL in assay [7]. In the assay on Enterococcus faecium [8], this molecule returned a minimal inhibitory concentration (MIC) of over 16 µg/mL. The same molecule registered an ED100 in the assay on Staphylococcus aureus [4] of 0.25 mg/kg. Further, the Selectivity in assay [2] was determined as 0.57.
`CN(C(=O)C[C@@H](N)c1csc(CN)n1)C1CN=C(NC(N)=O)NC1=O.O=S(=O)(O)C(F)(F)F` (stereo partly drawn) showed a negative logarithm of the IC50 (pIC50) with Escherichia coli of 4.49. This molecule also displayed a minimal inhibitory concentration (MIC) with Staphylococcus aureus [1] of 50 µg/mL.
The like results for `Br.CN(C(=O)C[C@@H](N)CCCCN)C1CN=C(Nc2nc3ccccc3s2)NC1=O` (stereo partly drawn) were, in that order, 5.49 and 25 µg/mL.
Take `CN(C(=O)C[C@@H](N)CS(=O)(=O)CCN)C1CN=C(NC(N)=O)NC1=O.Cl.Cl` (stereo partly drawn): the MIC in the assay on Staphylococcus aureus [1] is over 100 µg/mL.
For the molecule `CC(=O)O.CN(C(=O)C[C@@H](N)CCCCN)C1CN=C(Nc2ccc3ccccc3n2)NC1=O` (stereo partly drawn), the pIC50 in the assay on Escherichia coli and in the assay listed under Oryctolagus cuniculus was 7.30 each time. The same molecule registered a minimum inhibitory concentration (MIC) in the assay on Staphylococcus aureus [1] of 6.3 µg/mL. In assay [2], this molecule registered a Selectivity of 1.
For `CN(C(=O)C[C@@H](N)CCCCN)C1CN=C(NC(N)=O)NC1=O.Cl.Cl` (stereo partly drawn), the results for the pIC50 in the assay with Escherichia coli and in the assay listed under Oryctolagus cuniculus were 6.30 and 5.55, respectively. The minimum inhibitory concentration (MIC) in the assay on Staphylococcus aureus [1] turned out to be 0.05 µg/mL. In assay [2], the Selectivity was found to be 5.3.
Consider `CC(=O)O.CN(C(=O)C[C@@H](N)CCCN=C(N)N)C1CN=C(Nc2ccc3ccccc3n2)NC1=O` (stereo partly drawn), for which the negative-log IC50 (pIC50) with Escherichia coli and in the assay listed under Oryctolagus cuniculus was 7.00 each time. The MIC in the assay on Enterococcus faecium [3] is 8 µg/mL; against Staphylococcus aureus [1] it was 0.1 µg/mL; in the assay with Staphylococcus aureus [4] it was 0.5 µg/mL; in assay [5] it was 0.25 µg/mL; in [6] it was 8 µg/mL; against Enterococcus faecium [8], over 16 µg/mL. In addition, in [2], the Selectivity stood at 1.

The values are drawn from ChEMBL document CHEMBL1136146, “Pyrimidinone antibiotics--heterocyclic analogues with improved antibacterial spectrum” (Bioorg Med Chem Lett, 2003).
